Results as given in ChEMBL document CHEMBL3627658, “Novel concept of enzyme selective nicotinamide adenine dinucleotide (NAD)-modified inhibitors based on enzyme taxonomy from the diphosphate conformation of NAD” (Bioorg Med Chem Lett, 2015).

Key:
[1] = Inhibition of yeast ADH by Michaelis constant analysis; set-up: species or system Saccharomyces cerevisiae
[2] = Inhibition of Thermoanaerobacter brockii ADH by Michaelis constant analysis
[3] = Inhibition of Leuconostoc mesenteroides D-LDH by Michaelis constant analysis
[4] = Inhibition of pig heart LDH by Michaelis constant analysis; set-up: species or system Sus scrofa
[5] = Inhibition of pig heart MDH by Michaelis constant analysis; set-up: species or system Sus scrofa
[6] = organism: Gallus gallus; assay: Inhibition of chicken liver NAD kinase assessed as residual activity relative to control

| Ki [1] | Ki [2] | Ki [3] | Ki [4] | Ki [5] | Activity [6] | SMILES |
| --- | --- | --- | --- | --- | --- | --- |
| 0.62 mM | 0.71 mM | 10 mM | 0.8 mM | 0.7 mM | 81% | NC(=O)c1csc([C@@H]2O[C@H](COC(=O)[C@@H]3CCCC[C@H]3C(=O)OC[C@H]3O[C@@H](n4cnc5c(N)ncnc54)[C@H](O)[C@@H]3O)[C@@H](O)[C@H]2O)n1 |
| 2.6 mM | 7.1 mM | 24 mM | 3.9 mM | 3.3 mM | 60% | NC(=O)c1csc([C@@H]2O[C@H](COC(=O)[C@H]3CCCC[C@@H]3C(=O)OC[C@H]3O[C@@H](n4cnc5c(N)ncnc54)[C@H](O)[C@@H]3O)[C@@H](O)[C@H]2O)n1 |
| 3.6 mM | 7.2 mM | 20 mM | 2.7 mM | 1.8 mM | 64% | NC(=O)c1csc([C@@H]2O[C@H](COC(=O)CCC(=O)OC[C@H]3O[C@@H](n4cnc5c(N)ncnc54)[C@H](O)[C@@H]3O)[C@@H](O)[C@H]2O)n1 |
